Reference: the supplement of paper PMC10307832

Assays:
Experiment in all cases: relative viability (nuclei count vs DMSO), 5 days (fraction); higher = more cells survive
LCLC-103H = system: LCLC-103H
Procedure, shortened: (§1)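 Nuclei were stained with Hoechst during a one-step fixation (final 0.05% Triton X-100, 1% formaldehyde, 1 ug/ml Hoechst) carried out 5 days after dosing, then counted on 4× images. The cells, lung cancer lines in 1536-well plates, had been dosed by pin tool the day after seeding with one drug alone or a fixed anchor-drug dose plus five library-drug doses (not always all listed) in √10 steps. Relative viability is the nuclei count in treated wells divided by that in vehicle wells, and each value is the median of duplicate plates.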

LXF-289 = system: LXF-289
Procedure, shortened: as §1

NCI-H1355 = system: NCI-H1355
Procedure, shortened: as §1

NCI-H1563 = system: NCI-H1563
Procedure, shortened: as §1

NCI-H1651 = system: NCI-H1651
Procedure, shortened: as §1

NCI-H1755 = system: NCI-H1755
Procedure, shortened: as §1

NCI-H1792 = system: NCI-H1792
Procedure, shortened: as §1

NCI-H1915 = system: NCI-H1915
Procedure, shortened: as §1

NCI-H2170 = system: NCI-H2170
Procedure, shortened: as §1

NCI-H2347 = system: NCI-H2347
Procedure, shortened: as §1

NCI-H3122 = system: NCI-H3122
Procedure, shortened: as §1

NCI-H322M = system: NCI-H322M
Procedure, shortened: as §1

NCI-H441 = system: NCI-H441
Procedure, shortened: as §1

NCI-H460 = system: NCI-H460
Procedure, shortened: as §1

NCI-H520 = system: NCI-H520
Procedure, shortened: as §1

NCI-H596 = system: NCI-H596
Procedure, shortened: as §1

NCI-H650 = system: NCI-H650
Procedure, shortened: as §1

NCI-H661 = system: NCI-H661
Procedure, shortened: as §1

NCI-H727 = system: NCI-H727
Procedure, shortened: as §1

PC-14 = system: PC-14
Procedure, shortened: as §1

RERF-LC-KJ = system: RERF-LC-KJ
Procedure, shortened: as §1

SK-MES-1 = system: SK-MES-1
Procedure, shortened: as §1

For `COc1cc(N2CCC(C(N)=O)CC2)ccc1Nc1nc(N)c(Cl)c(Nc2ccccc2S(=O)(=O)C(C)C)n1` [HG-5-88-01] + Cc1nc(NC(=O)N2CCC[C@H]2C(N)=O)sc1-c1ccnc(C(C)(C)C(F)(F)F)c1 [Alpelisib] (partner 2 µM), the relative viability (LCLC-103H; first compound 0.04 µM) was 0.938, the relative viability (LCLC-103H; first compound 0.1265 µM) was 0.968 and the relative viability (LCLC-103H; first compound 0.4 µM) was 0.949. It also gave a relative viability (LCLC-103H; first compound 1.265 µM) of 0.907, a relative viability (LCLC-103H; first compound 4 µM) of 1.2 and a relative viability (LXF-289; first compound 0.04 µM) of 1.05. It also gave a relative viability (LXF-289; first compound 0.1265 µM) of 1.04, a relative viability (LXF-289; first compound 0.4 µM) of 1 and a relative viability (LXF-289; first compound 1.265 µM) of 1.08. It also gave a relative viability (LXF-289; first compound 4 µM) of 0.968, a relative viability (NCI-H1355; first compound 0.04 µM) of 0.881 and a relative viability (NCI-H1355; first compound 0.1265 µM) of 0.934. It also gave a relative viability (NCI-H1355; first compound 0.4 µM) of 0.775, a relative viability (NCI-H1355; first compound 1.265 µM) of 0.767 and a relative viability (NCI-H1355; first compound 4 µM) of 0.737. For the same molecule, the relative viability (NCI-H1563; first compound 0.04 µM) was 1.05, the relative viability (NCI-H1563; first compound 0.1265 µM) was 0.877 and the relative viability (NCI-H1563; first compound 0.4 µM) was 0.909. It also gave a relative viability (NCI-H1563; first compound 1.265 µM) of 0.844, a relative viability (NCI-H1563; first compound 4 µM) of 0.993 and a relative viability (NCI-H1651; first compound 0.04 µM) of 0.927. The relative viability (NCI-H1651; first compound 0.1265 µM) was 1, the relative viability (NCI-H1651; first compound 0.4 µM) was 0.962 and the relative viability (NCI-H1651; first compound 1.265 µM) was 0.906. It also gave a relative viability (NCI-H1651; first compound 4 µM) of 1.2, a relative viability (NCI-H1755; first compound 0.1265 µM) of 0.938 and a relative viability (NCI-H1755; first compound 0.4 µM) of 0.912. It also gave a relative viability (NCI-H1755; first compound 1.265 µM) of 0.897, a relative viability (NCI-H1755; first compound 4 µM) of 1.05 and a relative viability (NCI-H1792; first compound 0.04 µM) of 0.874. The relative viability (NCI-H1792; first compound 0.1265 µM) was 0.686, the relative viability (NCI-H1792; first compound 0.4 µM) was 0.654 and the relative viability (NCI-H1792; first compound 1.265 µM) was 0.635. For the same molecule, the relative viability (NCI-H1792; first compound 4 µM) was 0.949, the relative viability (NCI-H1915; first compound 0.04 µM) was 1.08 and the relative viability (NCI-H1915; first compound 0.1265 µM) was 1.03. For the same molecule, the relative viability (NCI-H1915; first compound 0.4 µM) was 1.12, the relative viability (NCI-H1915; first compound 1.265 µM) was 1.04 and the relative viability (NCI-H1915; first compound 4 µM) was 0.958. It also gave a relative viability (NCI-H2170; first compound 0.04 µM) of 0.761, a relative viability (NCI-H2170; first compound 0.1265 µM) of 0.833 and a relative viability (NCI-H2170; first compound 0.4 µM) of 0.795. For the same molecule, the relative viability (NCI-H2170; first compound 1.265 µM) was 0.46, the relative viability (NCI-H2170; first compound 4 µM) was 0.803 and the relative viability (NCI-H2347; first compound 0.04 µM) was 1.09. The relative viability (NCI-H2347; first compound 0.1265 µM) was 1.14, the relative viability (NCI-H2347; first compound 0.4 µM) was 1.1 and the relative viability (NCI-H2347; first compound 1.265 µM) was 0.984. The relative viability (NCI-H2347; first compound 4 µM) was 0.973, the relative viability (NCI-H3122; first compound 0.04 µM) was 0.624 and the relative viability (NCI-H3122; first compound 0.1265 µM) was 0.259. It also gave a relative viability (NCI-H3122; first compound 0.4 µM) of 0.245, a relative viability (NCI-H3122; first compound 1.265 µM) of 0.195 and a relative viability (NCI-H3122; first compound 4 µM) of 0.2. The relative viability (NCI-H322M; first compound 0.04 µM) was 0.774, the relative viability (NCI-H322M; first compound 0.1265 µM) was 0.841 and the relative viability (NCI-H322M; first compound 0.4 µM) was 0.903. It also gave a relative viability (NCI-H322M; first compound 1.265 µM) of 0.726, a relative viability (NCI-H322M; first compound 4 µM) of 0.639 and a relative viability (NCI-H441; first compound 0.04 µM) of 0.752. It also gave a relative viability (NCI-H441; first compound 0.1265 µM) of 0.77, a relative viability (NCI-H441; first compound 0.4 µM) of 0.845 and a relative viability (NCI-H441; first compound 1.265 µM) of 0.84. The relative viability (NCI-H441; first compound 4 µM) was 0.893, the relative viability (NCI-H460; first compound 0.04 µM) was 0.466 and the relative viability (NCI-H460; first compound 0.1265 µM) was 0.461. It also gave a relative viability (NCI-H460; first compound 0.4 µM) of 0.461, a relative viability (NCI-H460; first compound 1.265 µM) of 0.335 and a relative viability (NCI-H460; first compound 4 µM) of 0.304. It also gave a relative viability (NCI-H520; first compound 0.04 µM) of 0.85, a relative viability (NCI-H520; first compound 0.1265 µM) of 0.94 and a relative viability (NCI-H520; first compound 0.4 µM) of 0.884. The relative viability (NCI-H520; first compound 1.265 µM) was 1.01, the relative viability (NCI-H520; first compound 4 µM) was 1.03 and the relative viability (NCI-H596; first compound 0.04 µM) was 0.529. The relative viability (NCI-H596; first compound 0.1265 µM) was 0.477, the relative viability (NCI-H596; first compound 0.4 µM) was 0.587 and the relative viability (NCI-H596; first compound 1.265 µM) was 0.362. The relative viability (NCI-H596; first compound 4 µM) was 0.493, the relative viability (NCI-H650; first compound 0.04 µM) was 0.689 and the relative viability (NCI-H650; first compound 0.1265 µM) was 1.18. For the same molecule, the relative viability (NCI-H650; first compound 0.4 µM) was 1.04, the relative viability (NCI-H650; first compound 1.265 µM) was 0.816 and the relative viability (NCI-H650; first compound 4 µM) was 0.8. It also gave a relative viability (NCI-H661; first compound 0.04 µM) of 0.609, a relative viability (NCI-H661; first compound 0.1265 µM) of 0.773 and a relative viability (NCI-H661; first compound 0.4 µM) of 0.916. It also gave a relative viability (NCI-H661; first compound 4 µM) of 0.693, a relative viability (NCI-H727; first compound 0.04 µM) of 0.517 and a relative viability (NCI-H727; first compound 0.1265 µM) of 0.512. It also gave a relative viability (NCI-H727; first compound 0.4 µM) of 0.519, a relative viability (NCI-H727; first compound 1.265 µM) of 0.329 and a relative viability (NCI-H727; first compound 4 µM) of 0.27. It also gave a relative viability (PC-14; first compound 0.04 µM) of 0.884, a relative viability (PC-14; first compound 0.1265 µM) of 0.849 and a relative viability (PC-14; first compound 0.4 µM) of 0.882. For the same molecule, the relative viability (PC-14; first compound 1.265 µM) was 0.89, the relative viability (PC-14; first compound 4 µM) was 0.851 and the relative viability (RERF-LC-KJ; first compound 0.04 µM) was 0.838. The relative viability (RERF-LC-KJ; first compound 0.1265 µM) was 0.675, the relative viability (RERF-LC-KJ; first compound 0.4 µM) was 0.935 and the relative viability (RERF-LC-KJ; first compound 1.265 µM) was 0.551. For the same molecule, the relative viability (RERF-LC-KJ; first compound 4 µM) was 0.874, the relative viability (SK-MES-1; first compound 0.04 µM) was 0.925 and the relative viability (SK-MES-1; first compound 0.1265 µM) was 0.582. For the same molecule, the relative viability (SK-MES-1; first compound 0.4 µM) was 1.07, the relative viability (SK-MES-1; first compound 1.265 µM) was 0.941 and the relative viability (SK-MES-1; first compound 4 µM) was 0.86.
